Paper PMC4256409, “Role of Phenylalanine and Valine^10 Residues in the Antimicrobial Activity and Cytotoxicity of Piscidin-1” (PLoS ONE, 2014)
Where no end group is shown, it is not given here.

Key:
[1] = tested on: NIH3T3 cells; assay: Cytotoxicity, MTT assay; format: cell-based, mouse; settings: 1 d
Description: The mouse embryonic fibroblast-derived cell line NIH3T3 was purchased from the American Type Culture Collection (Manassas, VA). Cells were cultured in Dulbecco’s modified Eagle medium (DMEM) supplemented with 10% fetal bovine serum (FBS) and antibiotic solution (100 units/mL penicillin and 100 µg/mL streptomycin) at 37°C in a humidified 5% CO2 atmosphere. Cultures were passaged every 2–3 days by brief trypsin treatment and visualized with an inverted microscope. The cytotoxicity of peptides against mammalian cells was determined using a 3-(4,5-dimethylthiazol-2-yl)-2,5-diphynyltetrazolium bromide (MTT) assay. Cells were seeded on 96-well microplates at a density of 1×10^4 cells/well in 100 µL of DMEM containing 10% FBS and 1% antibiotics, and […]. Plates were incubated for 24 h at 37°C in 5% CO2. Serial 2-fold dilutions of peptide solutions (100 µL) in DMEM were added; wells containing cells without peptides served as controls. After incubating plates for 1 d, 20 µL of MTT solution (5 mg/mL) was added to each well, and the plates were incubated for an additional 4 h at 37°C. Precipitated MTT formazan was dissolved by adding 100 µL of dimethyl sulfoxide. Absorbance at 570 nm was measured using an enzyme-linked immunosorbent assay (ELISA) reader (Molecular Devices; Sunnyvale, CA). Cell survival, expressed as a percentage, was calculated as the ratio of A570 for cells treated with peptide to that of cells without peptide treatment.

[2] = tested on: human red blood cells (hRBCs); assay: Hemolysis; format: cell-based
Description: The hemolytic ability of the peptides was tested using hRBCs. FreshhRBCs were washed three times with phosphate-buffered saline (PBS) (35 mM phosphate buffer containing 150 mM NaCl, pH 7.4), centrifuged for 10 min at 1000×g, and resuspended in PBS. The peptide solutions were then added to 50 µL of hRBCs in PBS to yield a final volume of 100 µL and a final erythrocyte concentration of 4% (v/v). The resulting suspension was incubated with agitation for 1 h at 37°C. The samples were centrifuged at 1000×g for 5 min. Hemoglobin release was monitored by measuring the absorbance of the supernatant at 405 nm. Controls for zero hemolysis (blank) and 100% hemolysis consisted of hRBCs suspended in PBS and 0.1% Triton-X 100, respectively. The percentage of hemolysis was calculated using the following equation: [drawing 1]

Sequence: FFHHIFRGIVHVGKTIHRLVTG [Pis-1, reference compound]
- Survival rate of NIH3T3 cells ([1]; 6.25 µM peptide): 64%
- Survival rate of NIH3T3 cells ([1]; 12.5 µM peptide): 49%
- Survival rate of NIH3T3 cells ([1]; 25 µM peptide): 37%
- Survival rate of NIH3T3 cells ([1]; 50 µM peptide): 11%
- MHC (minimal peptide concentration that produced hemolysis) ([2]; pH 7.4): 1.6 µM
- Hemolysis ([2]; peptide at its MIC, hRBCs): produced hemolysis even at its MIC
